According to patent US11744824B2, “2-amino-3-carbonyl imidazopyridine and pyrazolopyridine compounds” (1ST Biotherapeutics, Inc., priority 2020, dated 2023):

Assays:
[1] = tested on: IL-6 secretion in BV-2 mouse microglia cells; experiment: IL-6 Secretion in BV-2 Cell (L18-MDP stimulated, ELISA); format: cell-based; conditions: BV-2 cells, 10 μg/ml L18-MDP, 24 hr
Experimental: IL-6 Secretion in BV-2 Cell
BV-2 mouse microglia cells were kindly provided from Dr. Bae in Korea Institute of Science and Technology (KIST). BV-2 cells were thawed and suspended in Dulbecco's modified eagle medium (DMEM) supplemented with 10% fetal bovine serum (FBS) and 1% Penicillin/Streptomycin. Cells were seeded into 96 well plates at 2×10^4 cells/well and allowed to attach for 24 hr. On the day of the experiment, various concentration of FB compounds was treated, and cells were stimulated with 10 μg/ml L18-MDP. After 24 hr incubation, supernatant was collected for cytokine assay.
Absorbance at 450 nm was measured using SpectraMax i3X microplate reader (Molecular Device). Values of media-only wells were subtracted and % inhibition for each compound concentration relative to the DMSO/L18-MDP-treated controls (100%) was calculated. The IC50 values were calculated from a series of percent activity values using software as implemented in the GraphPad Prism 7 software and SigmaPlot 13.0.

[2] = target: His-tagged recombinant human ABL1 (Homo sapiens (Human), UniProt P00519); experiment: c-Abl Kinase Assay (ADP-Glo); format: biochemical; conditions: in vitro kinase activity, ATP 25 μM
Chain of His-tagged recombinant human ABL1 (P00519 whole entry): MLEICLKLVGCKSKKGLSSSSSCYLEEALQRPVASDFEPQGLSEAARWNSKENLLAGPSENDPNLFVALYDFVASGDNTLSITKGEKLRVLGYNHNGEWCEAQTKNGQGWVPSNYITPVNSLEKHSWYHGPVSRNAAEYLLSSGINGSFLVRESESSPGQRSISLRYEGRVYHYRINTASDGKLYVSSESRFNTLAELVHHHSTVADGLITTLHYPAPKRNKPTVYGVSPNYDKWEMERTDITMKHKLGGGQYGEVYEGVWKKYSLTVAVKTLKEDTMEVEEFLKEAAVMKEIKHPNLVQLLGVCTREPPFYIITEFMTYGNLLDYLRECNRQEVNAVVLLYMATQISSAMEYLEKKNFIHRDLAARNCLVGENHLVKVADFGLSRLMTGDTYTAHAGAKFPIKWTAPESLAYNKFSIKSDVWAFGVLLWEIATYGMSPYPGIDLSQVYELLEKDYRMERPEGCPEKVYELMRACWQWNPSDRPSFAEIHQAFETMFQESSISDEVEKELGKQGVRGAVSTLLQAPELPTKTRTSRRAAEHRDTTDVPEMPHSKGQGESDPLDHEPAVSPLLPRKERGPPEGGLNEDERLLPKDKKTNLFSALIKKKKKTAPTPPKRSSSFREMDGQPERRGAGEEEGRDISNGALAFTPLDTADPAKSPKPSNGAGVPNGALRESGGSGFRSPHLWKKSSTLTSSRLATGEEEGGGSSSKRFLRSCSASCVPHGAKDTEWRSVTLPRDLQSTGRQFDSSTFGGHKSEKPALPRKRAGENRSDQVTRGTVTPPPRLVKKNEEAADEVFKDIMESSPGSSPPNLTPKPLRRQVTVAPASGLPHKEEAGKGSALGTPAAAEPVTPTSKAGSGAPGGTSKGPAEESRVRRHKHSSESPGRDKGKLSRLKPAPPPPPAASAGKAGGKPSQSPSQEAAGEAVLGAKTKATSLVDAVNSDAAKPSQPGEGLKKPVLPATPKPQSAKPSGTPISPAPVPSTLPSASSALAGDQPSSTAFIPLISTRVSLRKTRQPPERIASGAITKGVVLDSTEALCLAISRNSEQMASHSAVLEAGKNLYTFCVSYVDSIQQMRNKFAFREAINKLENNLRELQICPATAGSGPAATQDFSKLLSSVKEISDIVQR
Experimental: ADP-Glo assay kit was purchased from Promega. Magnesium chloride (MgCl2), bovine serum albumin (BSA), ethylene glycol-bis(β-aminoethyl ether)-N,N,N′,N′-tetraacetic acid (EGTA), tween-20, 1,4-dithiothreitol (DTT) and dimethyl sulfoxide (DMSO) were purchased from Sigma-Aldrich. HEPES buffer was purchased from Gibco. ABL1 kinase and Abltide were purchased from Signalchem.
c-Abl kinase activity was measured by Promega's ADP-Glo™ Assay. In this assay, His-tagged recombinant human ABL1 (0.25 ng/μl) is incubated with 5 μL of compounds (0.5% DMSO), 5 μL of Abltide (0.01 μg/μl) and 5 μL of ATP (25 μM) in buffer (50 mM HEPES, 7.5; 10 mM MgCl2; 1 mM EGTA; 0.05% BSA; 0.01% Tween-20; 2 mM DTT). The assay was started by incubating the reaction mixture in a 96-well plate at 30° C. for 30 min. After the incubation, 25 μL ADP-Glo reagent was added and the reaction was incubated at room temperature for 40-min to stop the reaction and degrade residual ATP. The ADP product was then converted to ATP by adding 50 μL per well of detection reagent. Luminescence was detected after 30-min room temperature incubation with the Molecular device I3X plate reader. The IC50 values were calculated from a series of percent inhibition values determined at a range of inhibitor concentration using software routines as implemented in the GraphPad Prism 7 software and Sigma Plot 13.0.

[3] = target: GST-tagged recombinant human RIP2 (Homo sapiens (Human), UniProt O43353); experiment: RIP2 Kinase Assay (ADP-Glo); format: biochemical; conditions: in vitro kinase activity, ATP 25 μM
Chain of GST-tagged recombinant human RIP2 (O43353 whole entry): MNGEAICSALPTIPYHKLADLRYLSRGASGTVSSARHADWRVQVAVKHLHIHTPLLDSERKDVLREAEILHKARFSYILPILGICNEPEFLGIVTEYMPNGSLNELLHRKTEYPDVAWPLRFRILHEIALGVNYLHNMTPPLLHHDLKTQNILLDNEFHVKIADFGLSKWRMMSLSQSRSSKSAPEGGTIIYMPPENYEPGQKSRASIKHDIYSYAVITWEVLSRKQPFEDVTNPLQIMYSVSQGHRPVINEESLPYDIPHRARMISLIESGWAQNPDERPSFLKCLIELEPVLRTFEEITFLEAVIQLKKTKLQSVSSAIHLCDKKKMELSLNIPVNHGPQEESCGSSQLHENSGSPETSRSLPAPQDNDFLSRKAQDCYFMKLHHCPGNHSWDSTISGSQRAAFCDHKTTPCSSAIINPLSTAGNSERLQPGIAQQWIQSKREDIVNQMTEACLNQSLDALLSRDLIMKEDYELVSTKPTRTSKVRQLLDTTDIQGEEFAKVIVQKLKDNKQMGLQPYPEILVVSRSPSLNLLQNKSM

SMILES	IC50 [1] [nM]	IC50 [2] [nM]	IC50 [3] [nM]
Cc1c(F)cc2[nH]ncc2c1-c1ccc2nc(N)c(C(=O)[C@@H]3C[C@@H]3F)n2c1 [Example 60]	1 to 100	101 to 500	1 to 100
Nc1nc2ccc(-c3ccc4[nH]ccc4c3)cn2c1C(=O)[C@@H]1C[C@@H]1F [Example 51]	101 to 500	1 to 100	1 to 100
Cc1c(-c2ccc3nc(N)c(C(=O)[C@@H]4C[C@@H]4F)n3c2)cnc2[nH]ccc12 [Example 40]	101 to 500	1 to 100	1 to 100
Nc1nc2ccc(-c3ccnc4[nH]ccc34)cn2c1C(=O)[C@@H]1C[C@@H]1F [Example 104]	101 to 500	1 to 100	1 to 100
Cc1c(F)cccc1-c1ccc2nc(N)c(C(=O)[C@@H]3C[C@@H]3F)n2c1 [Example 5]	501 to 1000	1 to 100	1 to 100
Cc1c(F)cc2[nH]ccc2c1-c1ccc2nc(N)c(C(=O)[C@@H]3C[C@@H]3F)n2c1 [Example 114]	101 to 500	1 to 100	1 to 100
Nc1nc2ccc(-c3cnc4[nH]ccc4c3)cn2c1C(=O)c1ccccn1 [Example 68]	101 to 500	–	1 to 100
Cc1c(-c2ccc3nc(N)c(C(=O)C4CNC4)n3c2)cnc2[nH]ccc12 [Example 82]	> 1000	–	1 to 100
Cc1ccc2[nH]ncc2c1-c1ccc2nc(N)c(C(=O)C3CC3)n2c1 [Example 3]	> 1000	–	1 to 100
Nc1nc2ccc(-c3cccc4[nH]ccc34)cn2c1C(=O)[C@@H]1C[C@@H]1F [Example 57]	101 to 500	1 to 100	1 to 100
Cc1c(-c2ccc3nc(N)c(C(=O)[C@@H]4C[C@@H]4F)n3c2)ccc2[nH]ccc12 [Example 89, (2-amino-6-(4-methyl-1H-indol-5-yl)imidazo[1,2-a]pyridin-3-yl)((1S,2S)-2-fluorocyclopropyl)methanone]	101 to 500	1 to 100	1 to 100
Nc1nc2ccc(-c3c[nH]c4ncccc34)cn2c1C(=O)[C@@H]1C[C@@H]1F [Example 110]	501 to 1000	–	1 to 100
Nc1nc2ccc(-c3cnc4[nH]ccc4c3)cn2c1C(=O)C1CNC1 [Example 86]	> 1000	–	1 to 100
Nc1nc2ccc(-c3c[nH]c4ccccc34)cn2c1C(=O)[C@@H]1C[C@@H]1F [Example 105]	101 to 500	1 to 100	1 to 100
Nc1nc2ccc(-c3cnc4[nH]ccc4c3Cl)cn2c1C(=O)c1ccccn1 [Example 75]	501 to 1000	–	1 to 100
Nc1nc2ccc(-c3cc(F)cc4[nH]ccc34)cn2c1C(=O)[C@@H]1C[C@@H]1F [Example 113]	101 to 500	1 to 100	1 to 100
